Measured values as given in US20250027086A1, “COMPOSITIONS AND METHODS FOR TREATMENT OF CANCERS USING MODIFIED siRNA-GEM AGENTS” (Sirnaomics, Inc., priority 2022, published 2025).
Entries after “also recorded” stand apart in the source; their conditions may differ.

Columns and labels:
[1] = test system: MiaPaCa-2 cells; experiment: Cell viability (CellTiter-Glo) in MiaPaCa-2 pancreatic cancer cells after transfection; assay type: cell-based, human; details: in combination with lipofectamine; 96 h; n=4 (FIG. 2); read-out: IC50, MiaPaCa-2 cell viability
Description: (§1) MIA PaCa-2, […], LS180, HT1376, HT29, H358, H1299, OVCAR-3, HTB-9 and Panc 10.05 cells were obtained from ATCC (Rockville, MD). MiaPaCa cells were cultured in DMEM medium supplemented with 10% FBS. H358, H1299, HTB-9, N87 and Panc 10.05 cells were cultured in DMEM/10% FBS; LS180 and HT1376 in EMEM/10% FBS; HT29 cells in McCoy5A/10% FBS; OVCAR-3 cells were incubated in RPMI/20% FBS. All cells were maintained at 37 degrees C. in an atmosphere containing 5% CO^2.
The day before transfection, cells were seeded in a 384-well plate at an optimal density of between 300 and 800 cells/well. The next day, ten 3-fold serial dilutions of single, modified-backbone siRNAs or PGN6/PGN7 siRNA and Gemcitabine (GEM) mixed with siRNAs: Wee1 #7, KRAS #1, MCL1 #3 or DM2-P47 siRNAs at 1:1 ratio were prepared and combined with diluted Lipofectamine RNAiMAX (Life Technologies, Carlsbad, CA). Within 20 minutes, 10 μl of the transfection mixtures were added to the cells in a 40 μL medium. The final concentrations of siRNAs or Gemcitabine in the wells ranged from 100 nM to 0.002 nM.
Ninety-six hours following the addition of GEM or transfection mixtures, the number of viable cells was determined with CellTiter-Glo®-2.0 reagent (Promega, Madison, WI) by measuring luminescent signal using a Cytation 5 plate reader (BioTek Inc, Winooski, VT). The treatment group (n=4) mean (±SD) was compared to those of non-treated controls and were reported as relative cell viability.

[2] = test system: OVCAR3 cells; experiment: Cell viability in ovarian cancer cell line OVCAR3; assay type: cell-based; details: OVCAR3, 800 cells per well; FIG. 13(b)
Description: as §1
(§2) The day before transfection, cells were seeded in a 384-well plate at an optimal density of between 300 and 800 cells/well. […]
(§3) Ninety-six hours following the addition of GEM or transfection mixtures, the number of viable cells was determined with CellTiter-Glo®-2.0 reagent (Promega, Madison, WI) by measuring luminescent signal using a Cytation 5 plate reader (BioTek Inc, Winooski, VT). […]
Using the same or similar experimental condition as are described above in Example 1, the effects of (i) PGN7 (SEQ. ID No. 9-10) plus a non-signaling oligonucleotide (“NS”), (ii) BCLxL #5 (SEQ. ID No. 14)+NS, and (iii) PGN7 and BCLxL #5 in combination were evaluated and are shown in triple negative breast cancer (MDA-MB231) and ovarian cancer (OVCAR3) cell lines in FIGS. 13 (a)-(b). […]

[3] = test system: MiaPaCa-2 xenograft tumors; experiment: Xenograft tumor growth in NU/NU mice after subcutaneous implantation of MiaPaCa tumor cells, intratumoral injections; assay type: in vivo, mouse; details: vs control; for tumor weight: xenografts harvested Day 25, n=8, FIG. 14(a)
Description: Twenty-four NU/NU nude mice were purchased from Charles River Laboratories (Frederick, MD) and each housed in a single cage with standard bedding, lighting and ad libitum feed.
The human pancreatic cell carcinoma MiaPaCa-2 cell line was obtained from American Type Culture Collection (ATCC, CRL-1420™) and cultured in DMEM with 10 percent fetal bovine serum and 1 percent pen-strep in a humidified incubator with temperature at 37 degrees C., and 5 percent CO2. Subcultures were made when cell volume reached ˜80-90 percent (roughly 3-5 days). Media was changed every 3 to 4 days. All experiments were performed when the cells reached approximately 80-90 percent confluence.
MiaPaCa tumor cells (2.5×10^6 cells) in 100 μl of growth media and 100 μl of Matrigel were injected subcutaneously into the left flank of each mouse on Day 0. Body weight measured using a digital scale, and tumor volume measured using a digital caliper, were recorded […]. Tumor volume was measured using external digital calipers with modified ellipsoid formula: ½(length×width^2).
The mice were assigned to one of three groups (n=8) approximately five to ten days after subcutaneous implantation of MiaPaCa cells, when tumors had reached 100 mm^3 in volume. Twice weekly (Mon. and Thurs.) for three-four weeks, mice in all three groups received intratumoral injections of 80 μl each. Mice in the control group were injected with non-silencing (NS) siRNA with HKP(+H) as a carrier. Mice in one of the treatment groups were injected with PGN7, i.e., GEM siRNA with HKP(+H)shk1 (2.z), (SEQ. ID No. 9-10). Mice in the second treatment group were injected with STD1, i.e., GEM siRNA with HKP(+H) chk1 (2.z) (SEQ. ID No. 3-4). All injections were given under isoflurane anesthesia to minimize discomfort
Tumor volume (mm^3) and body weights were measured on Days 0, 4, 7, 11, 14, 18, 21 and 25. Mean±SE for each group (PGN7, STD1 and control) were statistically compared using analysis of variance (ANOVA) with the Tukey test. Mice were also observed for excess growth, adverse reactions to treatments and other observable, adverse signs of health. Treatments were blinded to the tracers and data analysts.
All mice were sacrificed and the implanted xenograft removed on Day 26 after initial treatment (the last treatment given on Day 25). One-third of the xenograft was fixed in […] formalin for histological analysis; one-third was frozen and one-third was preserved in RNAlater stabilization and storage solution.

[4] = test system: HT1376, HTB-9, N87 and OVCAR-3 cell lines; experiment: Cell viability in urinary bladder, gastric and ovarian cancer cell lines; assay type: cell-based; details: HT1376, HTB-9, N87, OVCAR-3; FIGS. 9-10
Description: as §1, §2, §3
Using the same or similar experimental condition as are described above in Example 1, the effects of PGN7 (SEQ. ID No. 9-10), Wee1 (SEQ. ID No. 13), BCLxL #5 (SEQ. ID No. 14) or the PGN7+Wee1, or PGN+BCLxL combinations were evaluated and are shown in HT1376 (400 cells/well) and HTB-9 (800 cells/well) urinary bladder cancer cell lines, N87 (600 cells/well) gastric cancer cell line, and OVCAR-3 (800 cells/well) ovarian cancer line in FIGS. 11 (a)-(d). […]

Substance: PGN7: modified siRNA-GEM RNAi agent (SEQ. ID No. 9-10): sense 5′-AAGAAAgAgau[GEM]uGuAu[GEM]AAu-3′; antisense 5′-AuUGAuACAGAuCuCuUuCuU[GEM][GEM]dTdT-3′ (sense AAGAAAGAGATCTGTATCAAT; antisense ATTGATACAGATCTCTTTCTTCCTT; GEM modifications; 2'-modified bases; dTdT overhang; modified_base 1 OTHER; 2'-O-methyl modified nucleotide; modified_base 2 OTHER; modified_base 3 OTHER; modified_base 4 OTHER; modified_base 5 OTHER; modified_base 6 OTHER; modified_base 7 OTHER; 2'-fluoro modified nucleotide; modified_b; 2'-O-me)
- IC50 [1]: 6 pM
- IC50 [2]: 0.5 nM
- tumor volume ([3]; intratumoral twice weekly with HKP(+H), ANOVA Tukey, p<0.02, from 14 days, FIG. 14(c)): effectively attenuated the increase; also recorded: significantly reduced tumor volume; also recorded: attenuating the growth of pancreatic tumors
- body weight ([3]; over 25 days, p>0.05, FIG. 14(b)): did not differ
- tumor weight ([3]; p>0.05): did not differ
- tumor weight ([3]; p>0.05, listed as PGN 7): did not differ significantly
- efficacy on cell viability [4]: significant efficacy
